Measurements reported in US20230263742A1, “A LIPID” (Stemirna Therapeutics Co., Ltd., priority 2021, published 2023).
Blank lines part the entries; values can stand above or below the compound they belong to.

Legend:
Balb/C mice [1] = assay: In vivo Luc expression after tail vein injection of Luc mRNA-LNP; details: 5 μg Luc mRNA-LNP tail vein, 6 hours
Description: In vivo expression evaluation method: 5 μg Luc (luciferase) mRNA-LNP solution of SW-II-118, SW-120, or SW-121 were injected into the tail vein of Balb/C mice. 6 hours after the administration, the mice are injected 0.15 mg/kg of […] substrate intraperitoneally. Within 15 minutes after the injection of the substrate, the fluorescence signal intensity was tested under a small animal in vivo imaging instrument.

cells = assay: Cytotoxicity, CCK-8 cell viability; type: cell-based; details: 200 ng LNP, 24 h, CCK-8, vs cells blank
Description: Evaluation method of cytotoxicity: 200 ng of LNP samples were mixed with cells and incubated for 24 h, then the viability was detected using CCK-8 cell viability detection kit. 10 μl of CCK-8 detection reagent was added to the transfected cells and the OD value was detected using a microplate reader at a detection wavelength of 450 nm. The cell viability percentage is obtained by comparing the OD value with that of the cells blank.

Balb/C mice [2] = assay: Luc expression in injection site and liver site after intramuscular administration (Example 5); type: in vivo; details: 5 μg Luc mRNA-LNP (DSPC) intramuscularly, Balb/C mice n=3, 6 h
Description: Further bioluminescence studies were performed to investigate the delivery efficiency of nanoparticle compositions including various lipid compounds according to the present invention. The formulations containing reference cationic lipid M62, M63, M118, and M119 (corresponding to Compound 62, 63, 118, and 119 in PCT/US2018/022717 (WO2018/170306), respectively) were evaluated for comparison. Nanoparticle compositions including DSPC as an optimized phospholipid, cholesterol as a structural lipid, PEG-DMG as a PEG lipid, an RNA, and a compound above mentioned were prepared according to or via methods similar to those described in Examples 1 and 2. The ratios of the lipids were 50:10:38.5:1.5 mol % for the lipid of the present invention: DSPC: cholesterol: PEG-DMG. 5 μg of LNP solution containing luciferase mRNA was administered intramuscularly to Balb/C mice (n=3). 6 hours after administration, mice were injected intraperitoneally with 0.15 mg/kg of D-luciferin substrate. Within 15 minutes after the injection of the substrate, the fluorescence signal intensity in injection site and liver site were tested under a small animal in vivo imaging instrument. Tables 3-4 summarize the fluorescence signal intensity of the nanoparticle compositions including present invention lipids and the reference compounds in injection site and liver site.

Balb/C mice [3] = assay: In vivo Luc expression after intramuscular injection, compared with MC3 (Example 4); details: 5 μg Luc mRNA-LNP (DSPC) intramuscularly, Balb/C mice n=3, 6 hours; for in vivo Luc expressions (FIG. 2): compared with MC3
Description: The mRNA nanoparticle compositions of SW-II-118, SW-120, and SW-121 were prepared according to the method provided in Example 3. The ratios of the lipids were 50:10:38.5:1.5 mol % for cationic lipid: DSPC: cholesterol: PEG-DMG. The cationic lipid MC3 was a current standard in the art. Accordingly, the standard MC3 formulation including 50 mol % MC3, 10 mol % DSPC, 38.5 mol % cholesterol, and 1.5 mol % PEG-DMG was used as a reference for this study.
5 μg of Luc mRNA-LNP of MC3, SW-II-118, SW-II-120, or SW-II-121 was intramuscularly injected into Balb/C mice (n=3). 6 hours after the administration, the mice were injected intraperitoneally with 0.15 mg/kg […] substrate. 15 minutes after the injection of the substrate, the fluorescence signal intensity was tested under a small animal in vivo imaging instrument.

A20 cells = assay: In vitro cell Luc expression, A20; type: cell-based; details: 100 ng Luc mRNA-LNP, 24 h
Description: (§1) In vitro cell expression evaluation method: C2C12 cells, HepG2 cells, A20 cells were cultured, and 100,000 cells per well were plated on a 96-well plate. 100 ng of LNP samples were mixed with the cells and incubated for 24 hours (n=3), and then the expression was detected using luciferase quantitative kit 24 h after administration.

C2C12 cells = assay: In vitro cell Luc expression, C2C12; type: cell-based; details: 100 ng Luc mRNA-LNP, 24 h
Description: as §1

[4] = Particle size, PDI and zeta potential by dynamic light scattering; type: physicochemical; details: for PDI / Zeta potential: Luc mRNA-LNP 50:10:38.5:1.5; for Size: Luc mRNA-LNP, lipid:phospholipid:cholesterol:PEG-DMG 50:10:38.5:1.5
Description: A Zetasizer Nano ZS (Malvern Instruments Ltd, Malvern, Worcestershire, UK) can be used to determine the particle size, the polydispersity index (PDI) and the zeta (ζ) potential of the nanoparticle compositions in 1×PBS in determining particle size and 15 mM PBS in determining zeta (ζ) potential.
The evaluation method of particle size and zeta potential: 50 μL LNP sample was diluted with 950 μL purified water to obtain the diluted LNP sample. The sample was placed in a dynamic light scattering laser particle size analyzer (Malvern, ZS-90) for testing.

PDI ([4]; phospholipid DAPC): 0.28 ± 0.03 | Zeta potential ([4]; phospholipid DAPC): −7.18 ± 0.42 mV | Size ([4]; phospholipid DAPC): 93.8 ± 1.6 nm | PDI ([4]; phospholipid DMPE): 0.29 ± 0.01 | Zeta potential ([4]; phospholipid DMPE): −1.59 ± 0.19 mV | Size ([4]; phospholipid DMPE): 102.8 ± 2.3 nm | PDI ([4]; phospholipid DOPE): 0.10 ± 0.04 | Zeta potential ([4]; phospholipid DOPE): −4.31 ± 1.36 mV | Size ([4]; phospholipid DOPE): 111.3 ± 2.0 nm | PDI ([4]; phospholipid DPPC): 0.26 ± 0.06 | Zeta potential ([4]; phospholipid DPPC): −2.32 ± 0.32 mV | Size ([4]; phospholipid DPPC): 97.3 ± 2.6 nm | PDI ([4]; phospholipid DPPE): 0.54 ± 0.41 | Zeta potential ([4]; phospholipid DPPE): −0.80 ± 0.58 mV | Size ([4]; phospholipid DPPE): 265.7 ± 306.1 nm | PDI ([4]; phospholipid DSPC): 0.37 ± 0.02 | Zeta potential ([4]; phospholipid DSPC): −1.65 ± 0.58 mV | Size ([4]; phospholipid DSPC): 108.7 ± 2.5 nm | PDI ([4]; phospholipid DSPE): 0.21 ± 0.01 | Zeta potential ([4]; phospholipid DSPE): −11.97 ± 1.19 mV | Size ([4]; phospholipid DSPE): 103.4 ± 2.0 nm
SMILES: CCCCCCCCC(CCCCCCCC)OC(=O)CCCCCCCN(CCO)CCCCCCCC(=O)OCCc1ccc(CCCC)cc1 [SW-II-118]
In vivo expression (Balb/C mice [1]; phospholipid DAPC): 8658333.3 p/sec/cm^2/sr | In vivo expression (Balb/C mice [1]; phospholipid DMPE): 23780.0 p/sec/cm^2/sr | In vivo expression (Balb/C mice [1]; phospholipid DOPE): 38066666.7 p/sec/cm^2/sr | In vivo expression (Balb/C mice [1]; phospholipid DPPC): 34323333.3 p/sec/cm^2/sr | In vivo expression (Balb/C mice [1]; phospholipid DPPE): 25176.7 p/sec/cm^2/sr | In vivo expression (Balb/C mice [1]; phospholipid DSPC): 40156666.7 p/sec/cm^2/sr | In vivo expression (Balb/C mice [1]; phospholipid DSPE): 25383333.3 p/sec/cm^2/sr | Viability (%) (cells; phospholipid DAPC): 104.0% | Viability (%) (cells; phospholipid DMPE): 110.8% | Viability (%) (cells; phospholipid DOPE): 98.7% | Viability (%) (cells; phospholipid DPPC): 105.4% | Viability (%) (cells; phospholipid DPPE): 162.7% | Viability (%) (cells; phospholipid DSPC): 103.0% | Viability (%) (cells; phospholipid DSPE): 113.9% | Luc expression in injection site, I.M. injection site, 6 h (ratio relative to SW-II-134-3 set as 1) (Balb/C mice [2]): 1.450 | Luc expression in liver site, Liver site upon I.M., 6 h (ratio relative to SW-II-137-1 set as 1) (Balb/C mice [2]): 2.234 | Luc expression in liver site compared with injection site (FIG. 2) (Balb/C mice [3]): higher than that in injection site | in vivo Luc expressions (FIG. 2) (Balb/C mice [3]): higher than that of MC3 | A20 cell, in vitro expression (A20 cells; phospholipid DAPC): 5337 | A20 cell, in vitro expression (A20 cells; phospholipid DMPE): 34438 | A20 cell, in vitro expression (A20 cells; phospholipid DOPE): 2295 | A20 cell, in vitro expression (A20 cells; phospholipid DPPC): 12326.5 | A20 cell, in vitro expression (A20 cells; phospholipid DPPE): 1627.5 | A20 cell, in vitro expression (A20 cells; phospholipid DSPC): 9068 | A20 cell, in vitro expression (A20 cells; phospholipid DSPE): 3748 | C2C12 cell, in vitro expression (C2C12 cells; phospholipid DAPC): 32703.5 | C2C12 cell, in vitro expression (C2C12 cells; phospholipid DMPE): 218015.5 | C2C12 cell, in vitro expression (C2C12 cells; phospholipid DOPE): 300431.5 | C2C12 cell, in vitro expression (C2C12 cells; phospholipid DPPC): 260091 | C2C12 cell, in vitro expression (C2C12 cells; phospholipid DPPE): 1254.5 | C2C12 cell, in vitro expression (C2C12 cells; phospholipid DSPC): 80658 | C2C12 cell, in vitro expression (C2C12 cells; phospholipid DSPE): 46290.5

PDI ([4]; phospholipid DAPC): 0.28 ± 0.02 | Zeta potential ([4]; phospholipid DAPC): −4.82 ± 0.28 mV | Size ([4]; phospholipid DAPC): 97.1 ± 1.6 nm | PDI ([4]; phospholipid DMPE): 0.20 ± 0.02 | Zeta potential ([4]; phospholipid DMPE): −6.08 ± 0.43 mV | Size ([4]; phospholipid DMPE): 92.7 ± 1.1 nm | PDI ([4]; phospholipid DOPE): 0.13 ± 0.02 | Zeta potential ([4]; phospholipid DOPE): 2.09 ± 0.28 mV | Size ([4]; phospholipid DOPE): 142.9 ± 1.9 nm | PDI ([4]; phospholipid DPPC): 0.22 ± 0.01 | Zeta potential ([4]; phospholipid DPPC): −3.23 ± 2.95 mV | Size ([4]; phospholipid DPPC): 92.97 ± 0.7 nm | PDI ([4]; phospholipid DPPE): 0.15 ± 0.04 | Zeta potential ([4]; phospholipid DPPE): −5.04 ± 1.16 mV | Size ([4]; phospholipid DPPE): 115.3 ± 3.7 nm | PDI ([4]; phospholipid DSPC): 0.20 ± 0.01 | Zeta potential ([4]; phospholipid DSPC): 0.61 ± 0.55 mV | Size ([4]; phospholipid DSPC): 88.7 ± 1.1 nm | PDI ([4]; phospholipid DSPE): 0.22 ± 0.02 | Zeta potential ([4]; phospholipid DSPE): −5.15 ± 2.37 mV | Size ([4]; phospholipid DSPE): 106.5 ± 5.5 nm
SMILES: CCCCCCCCC(CCCCCCCC)OC(=O)CCCCCCCN(CCO)CCCCCCCC(=O)OCCc1ccc(CCCCCC)cc1 [SW-II-120]
In vivo expression (Balb/C mice [1]; phospholipid DAPC): 39073333.3 p/sec/cm^2/sr | In vivo expression (Balb/C mice [1]; phospholipid DMPE): 49736666.7 p/sec/cm^2/sr | In vivo expression (Balb/C mice [1]; phospholipid DOPE): 5083666.7 p/sec/cm^2/sr | In vivo expression (Balb/C mice [1]; phospholipid DPPC): 21307300.0 p/sec/cm^2/sr | In vivo expression (Balb/C mice [1]; phospholipid DPPE): 7056000.0 p/sec/cm^2/sr | In vivo expression (Balb/C mice [1]; phospholipid DSPC): 58040000.0 p/sec/cm^2/sr | In vivo expression (Balb/C mice [1]; phospholipid DSPE): 128056666.7 p/sec/cm^2/sr | Viability (%) (cells; phospholipid DAPC): 99.0% | Viability (%) (cells; phospholipid DMPE): 87.9% | Viability (%) (cells; phospholipid DOPE): 115.0% | Viability (%) (cells; phospholipid DPPC): 102.9% | Viability (%) (cells; phospholipid DPPE): 107.1% | Viability (%) (cells; phospholipid DSPC): 102.3% | Viability (%) (cells; phospholipid DSPE): 97.9% | Luc expression in injection site, I.M. injection site, 6 h (ratio relative to SW-II-134-3 set as 1) (Balb/C mice [2]): 1.064 | Luc expression in liver site, Liver site upon I.M., 6 h (ratio relative to SW-II-137-1 set as 1) (Balb/C mice [2]): 1.318 | Luc expression in liver site compared with injection site (FIG. 2) (Balb/C mice [3]): higher than that in injection site | in vivo Luc expressions (FIG. 2) (Balb/C mice [3]): higher than that of MC3 | A20 cell, in vitro expression (A20 cells; phospholipid DAPC): 1764 | A20 cell, in vitro expression (A20 cells; phospholipid DMPE): 37055.5 | A20 cell, in vitro expression (A20 cells; phospholipid DOPE): 3578 | A20 cell, in vitro expression (A20 cells; phospholipid DPPC): 7015 | A20 cell, in vitro expression (A20 cells; phospholipid DPPE): 54823 | A20 cell, in vitro expression (A20 cells; phospholipid DSPC): 8101.5 | A20 cell, in vitro expression (A20 cells; phospholipid DSPE): 1599 | C2C12 cell, in vitro expression (C2C12 cells; phospholipid DAPC): 17847.5 | C2C12 cell, in vitro expression (C2C12 cells; phospholipid DMPE): 228078.5 | C2C12 cell, in vitro expression (C2C12 cells; phospholipid DOPE): 815187.5 | C2C12 cell, in vitro expression (C2C12 cells; phospholipid DPPC): 147377.5 | C2C12 cell, in vitro expression (C2C12 cells; phospholipid DPPE): 471290.5 | C2C12 cell, in vitro expression (C2C12 cells; phospholipid DSPC): 44819 | C2C12 cell, in vitro expression (C2C12 cells; phospholipid DSPE): 51132.5
